This series is described as follows: Pharmacokinetic study in brain and plasma after oral dosing, LC-MS/MS. Type of series: in vivo, ICR mice. As to the method:
To determine the amount of PRO-Br in the brain, a pharmacokinetic study was performed employing 3-month-old female ICR mice (n = 6, 30 ± 2 g). PRO-Br (10 mg/kg b. wt) was injected orally. Brain tissues and blood samples (intracardial) were collected at various time-points (0, 15, 30, 45, 60, 75, 120, 240, 360, 480 min). Brain tissues and plasma samples were kept at −80°C until analysis. On the day of analysing the samples, the brain tissues were thawed on ice and half brain tissue was taken for analysis. To 200 mg of tissue, 4 times the volume of methanol (100%) was added, and homogenized until a clear solution was observed. The samples were centrifuged at 15,000 RPM for 10 min at 4°C. The supernatant was separated and analyzed using LC-MS/MS.
Quantification of PRO-Br in mice brains was performed by Agilent 6410 LC-ESI-Triple-Quad/TOF. The mobile phase (A) consisted of water with 0.1% formic acid, and the mobile phase (B) consisted of acetonitrile with 0.1% formic acid (B). C18 column was used to elute the desired solutes, based on the protocol: 0–5 min, 23–50% B; 5–15 min, 50–60% B; 15–15.01 min, 60–95% B; 15.01–22 min, 95% B. The ions of PRO-Br were detected in positive ionization mode. Multiple reaction monitoring (MRM) mode was used to monitor the analytes of PRO-Br.

Read-outs that look alike come from different tables or passages of the source.

Consider `CN1CCc2cc3c(cc2C(=O)Cc2c(Br)cc4c(c2C1)OCO4)OCO3` [PRO-Br, bromo-protopine], for which the “time retained in the brain” value (10 mg/kg oral, female ICR mice, brain) came to 4.2 h. Further, the brain penetrating efficacy result (compared to PRO) is reported as “superior compared to its parent compound”. Also, the Kp (mouse, brain, 10 mg/kg oral, female ICR mice, read-out: brain/plasma ratio) came out at 8.08. The Cmax is, setting by setting: (mouse, 10 mg/kg oral, female ICR mice, brain, read-out: maximum concentration (Cmax) in the brain) 425 ng/g; (mouse, 10 mg/kg oral, female ICR mice, plasma, read-out: Cmax in the plasma) 91.9 ng/mL. The Tmax – broadly, the time at which the peak concentration occurs – runs as follows: (mouse, 10 mg/kg oral, female ICR mice, brain, read-out: maximum time (Tmax) in the brain (converted)) 30 min; (mouse, 10 mg/kg oral, female ICR mice, plasma, read-out: Tmax in the plasma (converted)) 15 min.

(Values after publication PMC9643865, “Bromo-protopine, a novel protopine derivative, alleviates tau pathology by activating chaperone-mediated autophagy for Alzheimer’s disease therapy” (Frontiers in Molecular Biosciences, 2022).)
